Measured values: PMC8952214 (Pharmaceuticals, 2022)
Like-named read-outs stand apart in the source and are kept apart here.

Key:
A/H1N1 = details: cited from earlier work
[1] = tested on: A/RomaISS/02/08 H1N1 (Brisbane-like) oseltamivir-sensitive virus; details: MDCK cells, c.p.e. by neutral red, 48 h; read-out: EC50 A/Roma H1N1; cited from earlier work
[2] = tested on: A/Parma/05/06 H3N2 (Wisconsin-like); assay type: biochemical, Influenza A virus
Cytotoxicity assay = assay type: cell-based, canine; details: dog, MDCK cells (confluent); read-out: CC50 cytotoxic concentration 50%
Protocol: Madin-Darby canine kidney (MDCK, ATCC, CRL-2936) cells were grown at 37 °C in minimal essential medium (MEM, Invitrogen, Paisley, UK) containing 1.2 g/L NaHCO3, and supplemented with 10% inactivated fetal calf serum (FCS, Invitrogen, Paisley, UK), 2 mM glutamine, nonessential amino acids, penicillin (100 IU/mL), and streptomycin (100 μg/mL).
This procedure was performed as reported elsewhere. Briefly, two-fold serial dilutions of each compound and DMSO or H2O in culture medium were incubated at 37 °C with confluent MDCK cells grown in 96-well tissue culture microplates (Nalge Nunc Europe Ltd., Neerijse, Belgium). After 24 and 48 h, the following parameters were evaluated: cell morphology was examined by light microscopy, cell viability was determined by neutral red staining as already described by us, and cell proliferation was evaluated quantitatively by microscopic counts after dispersion into individual cells with trypsin.

[3] = tested on: A/RomaISS/02/08 H1N1 (Brisbane-like) oseltamivir-sensitive virus; details: Table 1; turkey erythrocytes; cited from earlier work
[4] = tested on: A/Parma/05/06 H3N2 (Wisconsin-like); test: microbe, parasite or virus in culture; assay type: cell-based, Influenza A virus; details: for EC50: Influenza A virus, H3N2, MDCK, 48 h, read-out: EC50 A/Parma H3N2
[5] = tested on: A/RomaISS/02/08 H1N1 (Brisbane-like) oseltamivir-sensitive virus; test: microbe, parasite or virus in culture; assay type: cell-based, Influenza A virus; details: for EC50: Influenza A virus, H1N1, MDCK, 48 h, read-out: EC50 A/Roma H1N1
[6] = tested on: A/RomaISS/02/08 H1N1 (Brisbane-like) oseltamivir-sensitive virus; assay type: biochemical, Influenza A virus

Row | SMILES | HI Titer A/Parma H3N2 [2] | CC50 (Cytotoxicity assay) [µM] | HI Titer A/Roma H1N1 [3] [µM] | SI (selectivity index) = CC50/EC50, A/Parma H3N2 [4] | HI Titer A/Roma H1N1 [6] [pM] | also measured
1 | Cc1ccc(S(=O)(=O)NC(C)c2ccc(-n3ccnc3)cc2)cc1C (stereo not drawn) [Compound 1] | 0.48 µM | 300 | 0.24 | 3 × 10^3 |  | activity in hemolysis assays toward A/H1N1 (A/H1N1): active; EC50 [1]: 500 nM; EC50 [4]: 98 nM
2 | Fc1ccc(CNc2ncnc3[nH]cnc23)cc1 [Compound 2] |  |  | 0.48 |  |  | 
3 | COc1ccc(C(=O)Nc2cccc(S(=O)(=O)NCc3ccco3)c2)cc1 [Compound 3] |  |  | 0.48 |  |  | 
4 | Cc1ccc(F)cc1NC(=O)COC(=O)c1ccc2ccccc2n1 [Compound 4] | 0.48 µM | 250 | 0.48 | 2 × 10^3 |  | activity in hemolysis assays toward A/H1N1 (A/H1N1): active; EC50 [1]: 62 nM; EC50 [4]: 125 nM
5 | Cc1ccc2nc(CNc3ccc(C)c(Cl)c3)cc(=O)n2c1 [Compound 5] |  |  | 0.48 |  |  | 
6 | O=C(CC1(O)C(=O)Nc2ccccc21)c1ccccn1 (stereo not drawn) [Compound 6] | 0.00048 µM | 31.2 |  | 1.04 × 10^2 |  | SI (selectivity index) = CC50/EC50, A/Roma H1N1 [5]: 1.56 × 10^2; EC50 [5]: 200 nM; EC50 [4]: 300 nM
7 | N#Cc1ccc(NC(=O)COC(=O)c2ccccn2)cc1 [Compound 7] | 12,500 pM | 31.2 |  | 0.44 × 10^2 | 0.047 | SI (selectivity index) = CC50/EC50, A/Roma H1N1 [5]: 0.39 × 10^2; EC50 [5]: 800 nM; EC50 [4]: 700 nM
8 | Cc1ccc(NC(=O)COC(=O)c2ccccn2)cc1F [Compound 13] | 6e-06 µM | 31.2 |  | 0.62 × 10^2 | 24 | EC50 [5]: 700 nM
9 | O=C1CCCN1c1ccc(CNS(=O)(=O)c2ccc(F)cc2)cc1 [Compound 23] |  |  |  |  | 12 | 
10 | O=C(COC(=O)c1ccccn1)Nc1ccc2c(c1)CCC2 [Compound 24] |  |  |  |  | 0.024 | 
11 | COc1ccc(S(=O)(=O)NCc2ccc(-n3ccnc3)cc2)cc1F [Compound 25] | 50,000 pM | 31.2 |  | 0.39 × 10^2 |  | SI (selectivity index) = CC50/EC50, A/Roma H1N1 [5]: 0.34 × 10^2; EC50 [5]: 900 nM
12 | Cc1nc(-c2cccc(NC(=O)COC(=O)c3ccc4ccccc4n3)c2)cs1 [Compound 26] |  |  |  |  | 0.093 | 
13 | CC(NS(=O)(=O)c1ccc2c(c1)CCC(=O)N2)c1ccc(-n2ccnc2)cc1 (stereo not drawn) [Compound 27] | 25,000 pM |  |  |  |  | 
14 | Cc1ccc(S(=O)(=O)Nc2ccc(-n3ccnc3)c(Cl)c2)cc1 [Compound 28] |  |  |  |  | 0.093 | 
